From ChEMBL document CHEMBL4354835, “Selective Blockade of Neuronal BK (α + β4) Channels Preventing Epileptic Seizure” (J Med Chem, 2020) come the findings set out here.

The structures appear in SMILES notation. Active and inactive are the calls of the source. The rule behind the calls is not given here.

For assay [1], the species on record is Rattus norvegicus. Kind of assay: Inhibition of C-Fos expression in PTZ-induced epileptic seizures Sprague-Dawley rat model assessed as inhibition of FLI-positive pyramidal neurons in CA3 region of ipsilateral hippocampus at 10 uM compound infused into hippocampal region and 10 mins later injected with PTZ and measured after 2 hrs by immunohistochemistry. The assay is classed as functional, organism-based.

For assay [2], the species on record is Rattus norvegicus. The assay can be described thus: Effect on neuronal network in PTZ-induced epileptic seizures Sprague-Dawley rat model assessed as lowered PSD at delta wave band compound infused into hippocampal region and 10 mins later injected with PTZ and measured after 2 hrs by power spectral density analysis. In kind it is functional, organism-based.

For assay [3], the species on record is Rattus norvegicus. The assay can be described thus: Neuroprotective activity in PTZ-induced epileptic seizure Sprague-Dawley rat model assessed as inhibition of hippocampal destruction by measuring increase in Nissl stained granular neurons in contralateral hippocampus DG region compound infused into hippocampal region and 10 mins later injected with PTZ and measured after 3 days by Nissl staining based microscopic analysis. In kind it is functional, organism-based.

For assay [4], the species on record is Rattus norvegicus. Kind of assay: Anticonvulsant activity against PTZ-induced epileptic seizure Sprague-Dawley rat model assessed as reduction in mortality rate compound infused into hippocampal region and 10 mins later injected with PTZ and measured for 2 hrs post PTZ-stimulation. The assay is classed as functional, organism-based.
The species entered for assay [5] is Rattus norvegicus. Kind of assay: Effect on neuronal network in PTZ-induced epileptic seizures Sprague-Dawley rat model assessed as lowered PSD at theta wave band compound infused into hippocampal region and 10 mins later injected with PTZ and measured after 2 hrs by power spectral density analysis. The assay is classed as functional, organism-based.
Assay [6] is filed under the species Rattus norvegicus. The assay can be described thus: Effect on neuronal network in PTZ-induced epileptic seizures Sprague-Dawley rat model assessed as lowered PSD at alpha wave band compound infused into hippocampal region and 10 mins later injected with PTZ and measured after 2 hrs by power spectral density analysis. In kind it is functional, organism-based.
Assay [7] concerns the target T1, KCNMA1/KCNMB4 (Rattus norvegicus) (UniProt Q62976+Q9ESK8). The assay can be described thus: Inhibition of BK alpha/beta-4 in PTZ-stimulated rat hippocampal pyramidal neurons assessed as larger action potential width at 300 pA current injection at -80mV holding potential measured after 10 mins by whole cell current clamp assay. In kind it is protein-complex assay.

Assay [8] is filed under the species Rattus norvegicus. The assay can be described thus: Anticonvulsant activity against PTZ-induced epileptic seizure Sprague-Dawley rat model assessed as duration of seizure compound infused into hippocampal region and 10 mins later injected with PTZ and measured for 2 hrs post PTZ-stimulation (reference value: 376 +/- 76.43 sec). The assay is classed as functional.

The next assay addresses KCNMA1/KCNMB4 (Homo sapiens, UniProt Q12791+Q86W47). Kind of assay: Inhibition of human BK alpha/beta4 channel expressed in HEK293T cells assessed as K+ outward current fraction at 10 uM at -80 mV holding potential by whole cell patch clamp method relative to control. The assay is classed as cell-based.
For assay [9], the species on record is Rattus norvegicus. Kind of assay: Inhibition of C-Fos expression in PTZ-induced epileptic seizures Sprague-Dawley rat model assessed as inhibition of FLI-positive granular neurons in DG region of ipsilateral hippocampus at 10 uM compound infused into hippocampal region and 10 mins later injected with PTZ and measured after 2 hrs by immunohistochemistry. In kind it is functional, organism-based.

For assay [10], the species on record is Rattus norvegicus. The assay can be described thus: Anticonvulsant activity against PTZ-induced epileptic seizures Sprague-Dawley rat model assessed as decrease in number of seizures at high stage (stage 4 and 5) compound infused into hippocampal region and 10 mins later injected with PTZ and measured for 2 hrs post-PTZ stimulation. In kind it is functional, organism-based.

The species named for assay [11] is Rattus norvegicus. Kind of assay: Inhibition of C-Fos expression in PTZ-induced epileptic seizures Sprague-Dawley rat model assessed as inhibition of FLI-positive granular neurons in DG region of contralateral hippocampus at 10 uM compound infused into hippocampal region and 10 mins later injected with PTZ and measured after 2 hrs by immunohistochemistry. In kind it is functional, organism-based.

Assay [12] concerns the target T1, KCNMA1/KCNMB4 (Rattus norvegicus). The assay can be described thus: Inhibition of BK alpha/beta-4 in PTZ-stimulated rat hippocampal pyramidal neurons assessed as increase in AHP size at 300 pA at -80mV holding potential measured after 10 mins by whole cell current clamp assay. In kind it is protein-complex assay.
Assay [13] is filed under the species Rattus norvegicus. The assay can be described thus: Inhibition of C-Fos expression in PTZ-induced epileptic seizures Sprague-Dawley rat model assessed as inhibition of FLI-positive pyramidal neurons in CA3 region of contralateral hippocampus at 10 uM compound infused into hippocampal region and 10 mins later injected with PTZ and measured after 2 hrs by immunohistochemistry. The assay is classed as functional, organism-based.

Assay [14] is filed under the species Rattus norvegicus. Kind of assay: Effect on neuronal network in PTZ-induced epileptic seizures Sprague-Dawley rat model assessed as lowered PSD at gamma wave band compound infused into hippocampal region and 10 mins later injected with PTZ and measured after 2 hrs by power spectral density analysis. In kind it is functional, organism-based.
Assay [15] deals with T2, Calcium-activated potassium channel subunit beta-4 (Homo sapiens, UniProt Q86W47).
T2 sequence (Q86W47 whole entry): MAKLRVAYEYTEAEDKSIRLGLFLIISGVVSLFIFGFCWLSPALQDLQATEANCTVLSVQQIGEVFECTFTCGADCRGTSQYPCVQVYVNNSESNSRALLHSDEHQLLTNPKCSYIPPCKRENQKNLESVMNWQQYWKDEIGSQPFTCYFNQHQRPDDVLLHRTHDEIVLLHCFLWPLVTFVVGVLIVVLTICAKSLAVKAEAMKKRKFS
The assay can be described thus: Binding affinity to NT-495 fluorophore reagent labelled human BK beta4 (45 to 166 residues) incubated for 30 mins by microscale thermophoresis assay.

The species entered for assay [16] is Rattus norvegicus. Kind of assay: Effect on neuronal network in PTZ-induced epileptic seizures Sprague-Dawley rat model assessed as reduced total PSD frequency waves compound infused into hippocampal region and 10 mins later injected with PTZ and measured after 2 hrs by power spectral density analysis. In kind it is functional, organism-based.
The species entered for assay [17] is Rattus norvegicus. The assay can be described thus: Neuroprotective activity in PTZ-induced epileptic seizure Sprague-Dawley rat model assessed as inhibition of hippocampal destruction by measuring increase in Nissl stained pyramidal neurons in contralateral hippocampus CA3 region compound infused into hippocampal region and 10 mins later injected with PTZ and measured after 3 days by Nissl staining based microscopic analysis. In kind it is functional, organism-based.

The species entered for assay [18] is Rattus norvegicus. The assay can be described thus: Neuroprotective activity in PTZ-induced epileptic seizure Sprague-Dawley rat model assessed as inhibition of hippocampal destruction by measuring increase in Nissl stained pyramidal neurons in contralateral hippocampus CA1 region compound infused into hippocampal region and 10 mins later injected with PTZ and measured after 3 days by Nissl staining based microscopic analysis. The assay is classed as functional, organism-based.

For assay [19], the species on record is Rattus norvegicus. Kind of assay: Anticonvulsant activity against PTZ-induced epileptic seizure Sprague-Dawley rat model assessed as latency time of seizures compound infused into hippocampal region and 10 mins later injected with PTZ and measured for 2 hrs post PTZ-stimulation (reference value: 108.5 +/- 8.63 sec). In kind it is functional.
The species entered for assay [20] is Rattus norvegicus. The assay can be described thus: Effect on neuronal network in PTZ-induced epileptic seizures Sprague-Dawley rat model assessed as lowered PSD at beta wave band compound infused into hippocampal region and 10 mins later injected with PTZ and measured after 2 hrs by power spectral density analysis. The assay is classed as functional, organism-based.

The target of assay [21] is T1, KCNMA1/KCNMB4 (Rattus norvegicus). The assay can be described thus: Inhibition of BK alpha/beta-4 in PTZ-stimulated rat hippocampal pyramidal neurons assessed as slower decay of after hyperpolarization at 300 pA at -80mV holding potential measured after 10 mins by whole cell current clamp assay. In kind it is protein-complex assay.
For assay [22], the species on record is Rattus norvegicus. Kind of assay: Anticonvulsant activity against PTZ-induced epileptic seizure Sprague-Dawley rat model assessed as mortality rate compound infused into hippocampal region and 10 mins later injected with PTZ and measured for 2 hrs post PTZ-stimulation (reference value: 33.33%). In kind it is functional.

For `CC[C@H](C)[C@H](NC(=O)[C@H](CC(C)C)NC(=O)CNC(=O)[C@H](Cc1ccccc1)NC(=O)[C@H](CO)NC(=O)CN)C(=O)N[C@@H](CC(=O)O)C(=O)N[C@H](C(=O)N[C@@H](CCCCN)C(=O)N[C@H]1CSSC[C@@H]2NC(=O)[C@H](CCCCN)NC(=O)CNC(=O)[C@H](CCC(N)=O)NC(=O)CNC(=O)[C@H](CO)NC(=O)CNC(=O)[C@H]([C@@H](C)O)NC(=O)[C@H](C(C)C)NC(=O)[C@H](CCC(=O)O)NC(=O)[C@H](CCCCN)NC(=O)[C@@H]3CSSC[C@@H](C(=O)N[C@@H](Cc4ccc(O)cc4)C(=O)O)N[C@@H](CCCNC(=N)N)C(=O)[C@H](CSSC[C@H](NC(=O)[C@H](CCC(=O)O)NC(=O)[C@H](CO)NC(=O)[C@H](CO)NC(=O)[C@H](C)NC(=O)[C@H](Cc4ccccc4)NC1=O)C(=O)N[C@@H](Cc1c[nH]c4ccccc14)C(=O)N[C@@H]([C@@H](C)O)C(=O)N[C@@H](C)C(=O)N3)N[C@@H](CCC(N)=O)C(=O)NC(=O)[C@H](CC(N)=O)NC(=O)[C@H](CC(N)=O)NC(=O)[C@H](CCC(N)=O)NC2=O)C(C)C`, the inhibition result (in the assay listed under Rattus norvegicus [1]; in the assay filed under Rattus norvegicus [9]; in the assay filed under Rattus norvegicus [11]; in assay [12]; in the assay filed under Rattus norvegicus [13]; in the assay listed under Rattus norvegicus [16]) was “inactive” each time. Further, in [21], the inhibition result was “inactive”. The outcome in the assay listed under Rattus norvegicus [2], in the assay filed under Rattus norvegicus [4], in the assay listed under Rattus norvegicus [5], in the assay listed under Rattus norvegicus [6], in the assay listed under Rattus norvegicus [10] and in the assay listed under Rattus norvegicus [18] was inactive. Besides, in the assay filed under Rattus norvegicus [20], the outcome was inactive. Further, the outcome in the assay listed under Rattus norvegicus [3], in the assay listed under Rattus norvegicus [14] and in the assay listed under Rattus norvegicus [17] was Active. For the same compound, in assay [7], the inhibition entry is “Active”. Further, the Time in the assay filed under Rattus norvegicus [8] was 316.66 to 353.33 s; in the assay listed under Rattus norvegicus [19], 219.5 to 266.5 s. The Ratio on KCNMA1/KCNMB4 is 0.8. The Kd result in assay [15] was “Not Active”.
One may read the mortality as the share of the test organisms that died. Consider `CCCC(CCC)C(=O)O` [VALPROIC ACID], for which the Time in the assay filed under Rattus norvegicus [8] amounted to 181.25 s; in the assay listed under Rattus norvegicus [19] it was 156.63 s. Further, in the assay filed under Rattus norvegicus [22], the mortality was determined as 0%.
